According to patent publication EP0571390B1, “THE DELAY, PREVENTION AND/OR REVERSAL OF CELL SENESCENCE” (priority 1990, dated 1992):

Experiments:
[1] = system: MRC-5 cells; assay: Longevity experiment, MRC-5 cells grown continuously in medium supplemented with carnosine; format: cell-based, human; details: for longevity: continuous, controls ceased growth at 57 and 61 PDs
Protocol: (§1) Cells were grown in Dulbecco's modification of Eagles' Minimal Essential Medium, with 10% fetal calf serum. When cells became confluent and ceased division, they were harvested with trypsin - versene, and dispersed to form a suspension of single cells which was counted with a Coulter Counter. Depending on the cell yield the culture was split in a ratio of 1:2, 1:4, or 1:8. These split ratios correspond approximately to one, two or three cell population doublings when the new cultures become confluent. The exact number of population doublings is calculated from the cell yield at each sub-culture.
MRC-5 is a very well characterised fibroblast strain derived from foetal lung tissue. Early passage cultures were obtained from the National Institute for Biological Standards and Control, South Mimms, Herts, U.K. Longevity experiments were set up using normal medium and medium supplemented with 20 and 30mM carnosine (medium was the same as for RR cells above). […] The control cells became senescent at the expected time, namely after about 50 - 55 PDs, and they ceased growth at 57 and 61 PDs. […] It should be noted that the PD level is a logarithmic measure of growth, so an increase of 10 PDs represents an increase in cell mass of 2^10, or x 1,000.

[2] = system: MRC-5 cells; assay: Transfer of senescent MRC-5 cells from normal medium to carnosine medium at PD level 55; format: cell-based, human
Protocol: as §1
Remarkably, these cells are continuing to grow after 400 days (Figure 8), whereas cells grown continuously in carnosine died out after 139 days. Thus it appears that transfer of senescent cells to carnosine can reverse the senescent phenotype and allow extended growth of cells with a near normal morphology (Figures 10, 11 and 12).

[3] = system: RR cells (human foreskin fibroblasts); assay: Growth and lifespan of RR cells passaged in medium with carnosine; format: cell-based; details: for fibroblast morphology: after many population doublings; for time still growing: continuous
Protocol: as §1
Initially, human foreskin fibroblasts were obtained from Dr Roger Reddel (Children's Medical Research Foundation) at passage 5, flasks were set up with differing concentrations of carnosine (10mM, 20mM, 30mM and 50mM) together with control cultures. Each of the cultures were passaged in the same medium.

[4] = transferred at PD level 55 to 20mM carnosine
[5] = transferred at PD level 55 to 30mM carnosine

SMILES: NCCC(=O)N[C@@H](Cc1c[nH]cn1)C(=O)O [carnosine, β-alanyl-L-histidine]
- PD level of cells growing continuously ([1]; 20mM carnosine (Figure 7)): 67 PD
- growth rate in the initial stage ([1]; 20mM carnosine versus normal medium): little difference in growth rate
- longevity ([1]; 20mM carnosine): very significantly increased longevity
- growth rate in the initial stage ([1]; 30mM carnosine versus normal medium): little difference in growth rate
- longevity ([1]; 30mM carnosine): very significantly increased longevity
- number of cells per flask ([1]; as the end of the culture lifespan approaches): significantly increases the number of cells per flask
- morphological features of senescence ([1]; carnosine medium, Figure 7 compared with Figure 6): delayed the normal morphological features of senescence
- time until cells died out ([1]; cells grown continuously in carnosine): 139 days
- PDs reached after transfer ([2]; 20mM carnosine, 146 days after transfer (Figure 11)): 64 PDs
- PDs reached after transfer ([2]; 30mM carnosine, 146 days after transfer (Figure 12)): 63 PDs
- effect in increasing cell yield ([2]; cells transferred from normal medium to 30mM carnosine medium (Figure 9)): particularly striking
- phenotype after transfer [2, 4]: continued to grow slowly, but with a rejuvenated phenotype
- time continuing to grow [2, 4]: > 400 days
- phenotype after transfer [2, 5]: continued to grow slowly, but with a rejuvenated phenotype
- time continuing to grow [2, 5]: > 400 days
- growth rate ([3]; 10mM carnosine added to standard medium, versus control cultures): grew as rapidly as control cultures
- growth rate ([3]; 20mM carnosine added to standard medium, versus control cultures): grew as rapidly as control cultures
- growth rate ([3]; 30mM carnosine): some reduction in growth rate
- fibroblast morphology ([3]; 30mM carnosine): retained their characteristic fibroblast morphology
- time still growing ([3]; 30mM carnosine): > 500 days
- growth rate ([3]; 50mM carnosine): a great reduction
- fibroblast morphology ([3]; 50mM carnosine): retained their characteristic fibroblast morphology
- time still growing ([3]; 50mM carnosine): > 500 days
